Where “and” joins values, the source holds several entries; their conditions need not be identical. Equal entries are not always repeated.
Key:
[1] = molecular target: T1, MHC-II DRB1*15:01 (Homo sapiens, UniProt P01903+P01911); assay: Cell-free REVEAL class II stability assay; conditions: half-life of peptide-MHC-II complex (h, capped at 120) x Binding Score / 100, conformational ELISA
T1 construct: purchased ProImmune
Protocol: (§1) We measured the half-life of each peptide-MHC-II complex using REVEAL peptide-MHC affinity assays developed by ProImmune Ltd. (Oxford, UK). On-rates of peptides were measured over a 96-hr period at 10°C. A unique positive control peptide was used for each MHC-II allele. Samples of assembling peptide-MHC complexes were taken at defined time points and snap-frozen in liquid nitrogen prior to analysis. Assembly of peptide-MHC complexes was detected using a conformational ELISA involving an anti-HLA antibody. On-rates were calculated by fitting data to a one-phase association curve: [drawing 1] To determine the off-rates of the peptides, samples of dissociating complexes were taken at defined time points and frozen in liquid nitrogen prior to analysis. Percent denaturation of peptide-MHC complexes was also detected using a conformational ELISA. Off-rates were calculated by fitting data to a one-phase dissociation curve: [drawing 2] On- and off-rate half-life values (t1/2) were calculated from the rate constant (k) using the following equation: [drawing 3] To obtain a normalized stability score, the half-life values were multiplied by the Binding Score (see above) and divided by 100.

[2] = molecular target: T2, MHC-II DRB1*07:01 (Homo sapiens, UniProt P01903+P01911, A100R/A102G/A103Q/D57E/D86V/E43K/F76Y/K127E/L162R/M171V/P40G/Q125H/Q99D/R33Q/R42Y/R54Q/S133A/S66F/T210M/V115G/Y107V/Y59L/Y89S); assay: Cell-free REVEAL class II stability assay; conditions: half-life of peptide-MHC-II complex (h, capped at 120) x Binding Score / 100, conformational ELISA
Protocol: as §1

[3] = molecular target: T3, MHC-II DRB1*04:01 (Homo sapiens, UniProt P01903+P01911, A100K/A169T/F76Y/I96L/K127E/L162R/M171V/N62H/P40V/Q125Y/R42H/S133A/S149N/S66Y/V115G/V209L/W38E); assay: Cell-free REVEAL class II stability assay; conditions: half-life of peptide-MHC-II complex (h, capped at 120) x Binding Score / 100, conformational ELISA
Protocol: as §1

[4] = molecular target: T4, MHC-II DRB1*15:03 (Homo sapiens, UniProt P01903+P01911, Y59H); assay: Cell-free REVEAL class II stability assay; conditions: half-life of peptide-MHC-II complex (h, capped at 120) x Binding Score / 100, conformational ELISA
T4 construct: purchased ProImmune
T4 sequence (P01903 26-254, other chains not shown): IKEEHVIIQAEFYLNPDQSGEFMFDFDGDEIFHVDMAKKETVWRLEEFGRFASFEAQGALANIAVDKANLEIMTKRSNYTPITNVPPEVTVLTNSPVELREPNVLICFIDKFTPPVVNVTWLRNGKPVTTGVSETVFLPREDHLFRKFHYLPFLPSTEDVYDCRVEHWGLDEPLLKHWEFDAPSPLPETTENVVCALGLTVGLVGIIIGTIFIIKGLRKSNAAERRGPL
Protocol: as §1

[5] = molecular target: T5, MHC-II DRB1*03:01 (Homo sapiens, UniProt P01903+P01911, A100K/A102G/A103R/A169T/F55Y/I96L/K41T/L162R/M171V/P40S/Q125H/Q178H/Q39Y/R42S/S66N/T106N/T262R/W38E/Y61H); assay: Cell-free REVEAL class II stability assay; conditions: half-life of peptide-MHC-II complex (h, capped at 120) x Binding Score / 100, conformational ELISA
T5 sequence (P01903 26-254 limits assumed, other chains not shown): as the sequence (P01903 26-254, other chains not shown) above
Protocol: as §1

[6] = molecular target: T6, MHC-II DRB1*11:01 (Homo sapiens, UniProt P01903+P01911, A100R/A169T/A87E/I96F/K41T/L162R/M171V/P40S/Q125H/Q178H/Q39Y/Q99D/R42S/S66Y/T262R/V115G/W38E); assay: Cell-free REVEAL class II stability assay; conditions: half-life of peptide-MHC-II complex (h, capped at 120) x Binding Score / 100, conformational ELISA
T6 sequence (P01903 26-254 limits assumed, other chains not shown): as the sequence (P01903 26-254, other chains not shown) above
Protocol: as §1

[7] = molecular target: T1, MHC-II DRB1*15:01; assay: Cell-free REVEAL class II binding assay; conditions: signal of test peptide as percentage of allele-specific positive control peptide, fluorescence, conformation-specific monoclonal antibody
Excerpt: (§2) We used a proprietary high throughput, REVEAL binding assay (ProImmune, www.proimmune.com) to estimate the binding of individual test peptides to the following MHC-II variants: DRB1*03:01, DRB1*04:01, DRB1*07:01, DRB1*11:01, DRB1*15:01 and DRB1*15:03 [28]. Detection of a peptide binding to each MHC-II protein is based on the presence or absence of the native conformation of the MHC-peptide complex. The peptide-MHC-II complex is detected by an increase in a fluorescence signal due to the binding of a specific monoclonal antibody. Each test-peptide is given a score relative to a positive control peptide, which is a known T-cell epitope for that MHC-II molecule. The score is reported quantitatively as a percentage of the signal generated by the test peptide compared with the positive control peptide. Assay performance is evaluated by including in each set of measurements an intermediate control peptide which is known to bind the MHC-II molecule but with a lower affinity than the positive control peptide. Note that the positive control peptide used to determine the binding score is different from the positive control peptides depicted in the figures, which are known T-cell epitopes identified in the FVIII molecule.

[8] = molecular target: T2, MHC-II DRB1*07:01; assay: Cell-free REVEAL class II binding assay; conditions: signal of test peptide as percentage of allele-specific positive control peptide, fluorescence, conformation-specific monoclonal antibody
Excerpt: as §2

[9] = molecular target: T3, MHC-II DRB1*04:01; assay: Cell-free REVEAL class II binding assay; conditions: signal of test peptide as percentage of allele-specific positive control peptide, fluorescence, conformation-specific monoclonal antibody
Excerpt: as §2

[10] = molecular target: T4, MHC-II DRB1*15:03; assay: Cell-free REVEAL class II binding assay; conditions: signal of test peptide as percentage of allele-specific positive control peptide, fluorescence, conformation-specific monoclonal antibody
Excerpt: as §2

[11] = molecular target: T5, MHC-II DRB1*03:01; assay: Cell-free REVEAL class II binding assay; conditions: signal of test peptide as percentage of allele-specific positive control peptide, fluorescence, conformation-specific monoclonal antibody
Excerpt: as §2

[12] = molecular target: T6, MHC-II DRB1*11:01; assay: Cell-free REVEAL class II binding assay; conditions: signal of test peptide as percentage of allele-specific positive control peptide, fluorescence, conformation-specific monoclonal antibody
Excerpt: as §2

Row | Sequence | Stability Index [1] | Stability Index [2] | Stability Index [3] | Stability Index [4] | Stability Index [5] | Stability Index [6] | Binding Score [7] | Binding Score [8] | Binding Score [9] | Binding Score [10] | Binding Score [11] | Binding Score [12]
1 | AHRTPMPKIQNVSSS [synthetic wild type FVIII 15 mer peptide, region of ns-SNP R776G] | 0.1 | 0.0 | 0.1 | 0.1 | 0.0 | 0.0 | 0.0% | 0.0% | 1.3% | 0.4% | 0.0% | 0.2%
2 | ASEGAEYDDQTSQRE [synthetic wild type FVIII 15 mer peptide] | 0.0 | 0.0 | 0.0 | 0.0 | 0.0 | 0.0 | 0.0% | 0.0% | 0.0% | 0.0% | 0.0% | 0.0%
3 | AVGVSYWKASEGAEY [synthetic wild type FVIII 15 mer peptide] | 1.0 | 0.0 | 0.4 | 0.0 | 0.0 | 0.0 | 17.0% | 0.0% | 2.0% | 0.1% | 0.0% | 0.3%
4 | AWRPQVNNPKEWLQV [synthetic wild type FVIII 15 mer peptide] | 0.6 | 0.0 | 10.2 | 0.1 | 0.0 | 0.0 | 0.5% | 0.0% | 17.7% | 0.2% | 0.0% | 0.1%
5 | DGAYAPVLQDFRSLN [synthetic wild type FVIII 15 mer peptide, region of ns-SNP D1241E] | 0.0 | 0.0 | 0.1 | 0.0 | 2.0 | 0.0 | 0.0% | 0.1% | 0.7% | 0.1% | 11.1% | 0.2%
6 | DIEKTDPWFAHRTPM [synthetic wild type FVIII 15 mer peptide, region of ns-SNP R776G] | 0.2 | 0.0 | 0.4 | 0.0 | 0.0 | 0.2 | 2.6% | 0.0% | 7.6% | 0.1% | 0.0% | 7.3%
7 | EWLQVDFQKTMKVTG [synthetic wild type FVIII 15 mer peptide, region of ns-SNP M2238V] |  | 0.1 and 0.2 | 4.8 and 5.4 | 2.3 and 1.6 | 33.3 and 31.3 | 16.4 and 16.2 |  | 0.1% and 0.2% | 26.4% and 28.1% | 24.1% and 17.6% | 57.0% and 65.6% | 157.4% and 152.7%
8 | NPPIIARYIRLHPTH [synthetic wild type FVIII 15 mer peptide] | 1374.9 | 0.2 | 3.1 | 18.2 | 0.0 | 6.3 |  | 0.2% | 5.0% | 15.2% | 0.4% | 76.5%
9 | PKEWLQVDFQKTMKV [synthetic wild type FVIII 15 mer peptide, region of ns-SNP M2238V] |  | 0.0 | 0.3 and 0.2 | 0.0 |  | 0.3 and 0.2 | 0.4% and 0.9% | 0.0% | 5.1% and 4.1% | 0.0% | 36.8% and 60.5% | 8.6% and 4.2%
